This is an account of results in patent US20090042949A1, “Indoles Useful in the Treatment of Inflammation” (priority 2005, published 2009).

pIC50: −log10 of the molar value.

In this assay the target is T1, mPGES-1 (Homo sapiens, UniProt O14684).
T1 construct: made in house; host or cells: E. coli
T1 sequence (O14684 1-152): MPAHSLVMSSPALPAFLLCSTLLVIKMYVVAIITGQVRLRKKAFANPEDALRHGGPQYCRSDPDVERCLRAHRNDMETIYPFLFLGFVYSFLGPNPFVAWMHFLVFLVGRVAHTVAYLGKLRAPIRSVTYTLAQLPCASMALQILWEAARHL
The experiment in a line: mPGES-1 biological test (conversion of PGH2 to PGE2, HPLC analysis). In kind it is biochemical. The following applies: mPGES-1 expressed in E. coli, membrane fraction; 25 min preincubation with inhibitor, 60 s with PGH2, room temperature. As for the experimental part:
In the assay mPGES-1 catalyses the reaction where the substrate PGH2 is converted to PGE2. mPGES-1 is expressed in E. coli and the membrane fraction is dissolved in 20 mM NaPi-buffer pH 8.0 and stored at −80° C. In the assay mPGES-1 is dissolved in 0.1 M KPi-buffer pH 7.35 with 2.5 mM glutathione. The stop solution consists of H2O/MeCN (7/3), containing FeCl2 (25 mM) and HCl (0.15 M). The assay is performed at room temperature in 96-well plates. Analysis of the amount of PGE2 is performed with reversed phase HPLC (Waters 2795 equipped with a 3.9×150 mm C18 column). The mobile phase consists of H2O/MeCN (7/3), containing TFA (0.056%), and absorbance is measured at 195 nm with a Waters 2487 UV-detector.
The following is added chronologically to each well: • 1. 100 μL mPGES-1 in KPi-buffer with glutathione. Total protein concentration: 0.02 mg/mL. • 2. 1 μL inhibitor in DMSO. Incubation of the plate at room temperature for 25 minutes. • 3. 4 μL of a 0.25 mM PGH2 solution. Incubation of the plate at room temperature for 60 seconds. • 4. 100 μL stop solution. • 180 μL per sample is analyzed with HPLC.
Turning to `CC(C)(C)c1ccc(-c2ccc3c(c2)cc(C(=O)Nn2cnnc2)n3-c2ccc(OC3CCCC3)cc2)cc1` [Example 12, 5-(4-tert-Butylphenyl)-1-(4-cyclopentyloxyphenyl)indole-2-carboxylic acid[1,2,4]triazol-4-ylamide], the pIC50 was 6.26.

The molecule `CC(C)(C)c1ccc(-c2ccc3c(c2)cc(C(=O)NCC(=O)O)n3-c2ccc(OC3CCCC3)cc2)cc1` [Example 4, {[5-(4-tert-Butylphenyl)-1-(4-cyclopentyloxyphenyl)indole-2-carbonyl]-amino}acetic acid] showed a negative logarithm of the IC50 (pIC50) of 5.72. Against the preceding molecule, the pIC50 is 0.54 log units lower.

The molecule `CN(CC(=O)O)C(=O)c1cc2cc(-c3ccc(C(C)(C)C)cc3)ccc2n1-c1ccc(OC2CCCC2)cc1` [Example 5, {[5-(4-tert-Butylphenyl)-1-(4-cyclopentyloxyphenyl)indole-2-carbonyl]-methylamino}acetic acid] had a pIC50 of 6.13.

In the case of `CC(C)(C)c1ccc(-c2ccc3c(c2)cc(C(=O)NCCS(=O)(=O)O)n3-c2ccc(OC3CCCC3)cc2)cc1` [Example 2, 2-{[5-(4-tert-Butylphenyl)-1-(4-cyclopentyloxyphenyl)indole-2-carbonyl]-amino}ethanesulfonic acid], the pIC50 is 6.18.

`CC(C)Oc1ccc(-n2c(C(=O)NS(C)(=O)=O)c(Cl)c3cc(-c4ccc(C(F)(F)F)cn4)ccc32)cc1` [Example 13, N-[3-Chloro-1-(4-isopropoxyphenyl)-5-(5-trifluoromethylpyridin-2-yl)indole-2-carbonyl]methanesulfonamide] showed a pIC50 of 5.57. Against the preceding molecule, the pIC50 is 0.61 log units lower.
